± gives the standard deviation of the averaged measurements.
Tested on: MES-SA
Experiment: relative viability vs DMSO control (72 h) (fraction); higher = more viable cells
How it was run: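 Sarcoma cell lines were seeded in 384-well plates at densities set to reach 80–90% confluence. After 24 h, 2.5 µl of serially diluted compound was added (source plates 10 mM to 0.0002 mM), and plates were held 72 h at 37 °C, 5% CO2, with 0.1% DMSO vehicle and a 5 µM positive control. Relative viability came from ATPLite readings as percent growth, averaged over up to triplicate wells. Data were rescaled so full viability equals 1 and none equals 0.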

SMILES | relative viability (0.00017 µM) | relative viability (0.00051 µM) | relative viability (0.00152 µM) | relative viability (0.00457 µM) | relative viability (0.01372 µM) | relative viability (0.04115 µM) | relative viability (0.1235 µM) | relative viability (0.3704 µM) | relative viability (1.111 µM) | relative viability (3.333 µM) | relative viability (10 µM) | relative viability (2 pM) | relative viability (5 pM) | relative viability (15 pM) | relative viability (50 pM) | relative viability (0.00014 µM) | relative viability (0.00041 µM) | relative viability (0.0012 µM) | relative viability (0.0037 µM) | relative viability (0.011 µM) | relative viability (200 fM) | relative viability (600 fM)
N#CC[C@H](C1CCCC1)n1cc(-c2ncnc3[nH]ccc23)cn1 [Ruxolitinib] | 1.02 ± 0.024 | 1.01 ± 0.024 | 0.997 ± 0.015 | 0.962 ± 0.058 | 0.992 ± 0.03 | 0.979 ± 0.058 | 0.957 ± 0.042 | 0.981 ± 0.02 | 0.84 ± 0.04 | 0.825 ± 0.042 | 0.679 ± 0.035 |  |  |  |  |  |  |  |  |  |  | 
Cc1cc(C)c(/C=C2\C(=O)Nc3ccccc32)[nH]1 [Semaxanib] | 0.908 ± 0.058 | 0.866 ± 0.02 | 0.866 ± 0.022 | 0.892 ± 0.027 | 0.882 ± 0.04 | 0.861 ± 0.061 | 0.871 ± 0.059 | 0.895 ± 0.035 | 0.889 ± 0.044 | 0.867 ± 0.041 | 0.798 ± 0.048 |  |  |  |  |  |  |  |  |  |  | 
Cc1nc(-c2cn3c(n2)-c2ccc(-c4cnn(C(C)(C)C(N)=O)c4)cc2OCC3)n(C(C)C)n1 [Taselisib] | 0.901 ± 0.028 | 0.9023 ± 0.004 | 0.887 ± 0.033 | 0.858 ± 0.021 | 0.797 ± 0.035 | 0.692 ± 0.01 | 0.504 ± 0.015 | 0.386 ± 0.014 | 0.299 ± 0.0098 | 0.214 ± 0.0027 | 0.146 ± 0.0072 |  |  |  |  |  |  |  |  |  |  | 
CN1CCC(COc2cnc(-c3cccc(Cn4nc(-c5cccc(C#N)c5)ccc4=O)c3)nc2)CC1 [Tepotinib] | 0.962 ± 0.038 | 0.959 ± 0.0044 | 0.95 ± 0.023 | 0.974 ± 0.033 | 0.955 ± 0.043 | 0.928 ± 0.035 | 0.939 ± 0.028 | 0.9528 ± 0.0065 | 0.94 ± 0.042 | 0.875 ± 0.027 | 0.752 ± 0.024 |  |  |  |  |  |  |  |  |  |  | 
COc1cc2nccc(Oc3ccc(NC(=O)Nc4cc(C)on4)c(Cl)c3)c2cc1OC [Tivozanib] | 0.914 ± 0.018 | 0.926 ± 0.051 | 0.925 ± 0.036 | 0.932 ± 0.035 | 0.94 ± 0.0096 | 0.944 ± 0.035 | 0.923 ± 0.013 | 0.955 ± 0.025 | 0.977 ± 0.021 | 0.697 ± 0.041 | 0.231 ± 0.0086 |  |  |  |  |  |  |  |  |  |  | 
C[C@@H]1CCN(C(=O)CC#N)C[C@@H]1N(C)c1ncnc2[nH]ccc12 [Tofacitinib] | 0.985 ± 0.035 | 0.955 ± 0.064 | 0.96 ± 0.043 | 0.963 ± 0.05 | 0.966 ± 0.033 | 0.976 ± 0.025 | 0.974 ± 0.031 | 0.953 ± 0.028 | 0.952 ± 0.056 | 0.927 ± 0.042 | 0.873 ± 0.049 |  |  |  |  |  |  |  |  |  |  | 
COc1cc2c(cc1O)CCN[C@]21CS[C@@H]2c3c(OC(C)=O)c(C)c4c(c3[C@H](COC1=O)N1[C@@H]2[C@H]2c3c(cc(C)c(OC)c3O)C[C@@H]([C@@H]1O)N2C)OCO4 [Trabectedin] |  |  |  |  |  |  |  |  |  |  |  | 0.939 ± 0.021 | 0.903 ± 0.022 | 0.886 ± 0.036 | 0.819 ± 0.039 | 0.667 ± 0.049 | 0.471 ± 0.025 | 0.0389 ± 0.024 | 0.0573 ± 0.00061 | 0.0496 ± 0.003 | 0.997 ± 0.015 | 0.963 ± 0.015
CC(=O)Nc1cccc(-n2c(=O)n(C3CC3)c(=O)c3c(Nc4ccc(I)cc4F)n(C)c(=O)c(C)c32)c1 [Trametinib] | 0.968 ± 0.022 | 0.965 ± 0.012 | 0.929 ± 0.017 | 0.873 ± 0.029 | 0.831 ± 0.015 | 0.78 ± 0.011 | 0.76 ± 0.015 | 0.736 ± 0.034 | 0.683 ± 0.032 | 0.701 ± 0.017 | 0.6906 ± 0.006 |  |  |  |  |  |  |  |  |  |  | 
Cc1cc(Nc2ncnc3ccc(NC4=NC(C)(C)CO4)cc23)ccc1Oc1ccn2ncnc2c1 [Tucatinib] | 0.988 ± 0.052 | 0.9678 ± 0.005 | 0.961 ± 0.03 | 0.95 ± 0.022 | 0.948 ± 0.031 | 0.939 ± 0.035 | 0.916 ± 0.013 | 0.89 ± 0.049 | 0.857 ± 0.0086 | 0.796 ± 0.02 | 0.515 ± 0.042 |  |  |  |  |  |  |  |  |  |  | 
COc1cc2/c(=N/c3ccc(Br)cc3F)nc[nH]c2cc1OCC1CCN(C)CC1 [Vandetanib] | 0.907 ± 0.02 | 0.925 ± 0.033 | 0.9 ± 0.013 | 0.932 ± 0.041 | 0.909 ± 0.053 | 0.907 ± 0.054 | 0.926 ± 0.022 | 0.909 ± 0.035 | 0.804 ± 0.029 | 0.6028 ± 0.0021 | 0.127 ± 0.0064 |  |  |  |  |  |  |  |  |  |  | 
CCCS(=O)(=O)Nc1ccc(F)c(C(=O)c2c[nH]c3ncc(-c4ccc(Cl)cc4)cc23)c1F [Vemurafenib] | 0.941 ± 0.024 | 0.951 ± 0.025 | 0.957 ± 0.013 | 0.957 ± 0.026 | 0.955 ± 0.031 | 0.953 ± 0.018 | 0.967 ± 0.028 | 0.995 ± 0.022 | 0.9726 ± 0.0075 | 0.782 ± 0.02 | 0.51 ± 0.01 |  |  |  |  |  |  |  |  |  |  | 
C[C@@H](c1ccc2nccn2c1)n1nnc2ncc(-c3cnn(C)c3)nc21 [Volitinib] | 0.91 ± 0.021 | 0.92 ± 0.053 | 0.97 ± 0.022 | 0.927 ± 0.043 | 0.959 ± 0.019 | 0.957 ± 0.026 | 0.929 ± 0.039 | 0.949 ± 0.029 | 0.926 ± 0.018 | 0.942 ± 0.018 | 0.902 ± 0.035 |  |  |  |  |  |  |  |  |  |  | 
C=CC(=O)N1CCC([C@@H]2CCNc3c(C(N)=O)c(-c4ccc(Oc5ccccc5)cc4)nn32)CC1 [Zanubrutinib] | 0.9598 ± 0.0038 | 0.965 ± 0.013 | 0.959 ± 0.026 | 0.983 ± 0.033 | 0.918 ± 0.031 | 0.95 ± 0.037 | 0.92 ± 0.041 | 0.965 ± 0.034 | 0.955 ± 0.018 | 0.881 ± 0.041 | 0.742 ± 0.034 |  |  |  |  |  |  |  |  |  |  | 

— the supplement of paper PMC10883282
